Data: PubChem BioAssay AID179 (DTP/NCI, 2004)
Where “and” joins values, the source holds several entries; their conditions need not be identical. Equal values may be shown once. Calls of active or inactive are those of the source.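 How the source made its calls: active means compounds giving half or more protection of infected cells from virus-caused growth loss, again on retest; inactive means the rest.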

Test system: CEM cells HIV-1 protection, formazan growth assay
Test: NCI AIDS Antiviral Assay
Details: for IC50: measured here: growth of uninfected CEM cells
Method in brief: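 CEM (human) cells, HIV-1 infected vs uninfected, 5-point dosing, formazan growth read-out. Retest threshold 50% protection.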

CC(NNC(=O)c1ccncc1)c1ccc(Cl)cc1Cl (stereo not given)
EC50: > 200 µM
IC50: 132 µM

CC(=O)OC1(c2ccccc2)OC(=O)C(C)(C)c2ccccc21 (stereo not given)
EC50: > 158 µM
IC50: > 158 µM

Cc1cc(-c2no[n+]([O-])c2-c2cc(C)sc2S(C)(=O)=O)c(S(C)(=O)=O)s1
EC50: > 200 µM
IC50: > 200 µM

ClC1=C(Cc2ccccc2)Cc2ccc3c(c21)CCC3
EC50: > 200 µM
IC50: > 200 µM

O=C(O)CN(c1ccccc1)S(=O)(=O)c1ccc(NC(=O)c2ccccc2)cc1
outcome: inactive

Cn1c(=O)c2c(nc3n2CCCC(=O)N3CC(O)CCl)n(C)c1=O (stereo not given)
EC50: > 200 µM
IC50: 85.1 µM

O=Nc1c(-c2ccccc2)nc2ccccn12
EC50: > 200 µM
IC50: 38.9 µM

O=C1CN=C(c2ccccn2)c2cc(Cl)ccc2N1CCO
EC50: > 794 µM
IC50: 468 µM

N#CCCN(c1ccc(/C=N/c2nc(-c3ccccc3)cs2)cc1)S(=O)(=O)c1ccccc1
EC50: > 55 µM
IC50: > 55 µM

CC1(C)C2CCC3(OCCO3)C1C(O)C2 (stereo not given)
EC50: > 427 µM
IC50: > 427 µM

O=C1Cc2ccccc2N1/N=C\c1ccc(O)cc1
EC50: > 372 µM
IC50: 39.8 µM

O=C(/C=C/C(Cl)(Cl)Cl)Nc1ccc(Cl)cc1
EC50: > 200 µM
IC50: 10.2 µM

COc1ccc2nc3ccc(OC)cc3c(SCc3ccccc3)c2c1
EC50: > 200 µM
IC50: > 100 µM

O=C(/C=C(\O)C(=O)O)/C=C(\O)c1ccccc1
EC50: > 200 µM
IC50: > 200 µM

CCOC(=O)C(CC)c1cc2n(c(=O)c1C#N)CCC21OCCO1 (stereo not given)
EC50: > 200 µM
IC50: > 200 µM

CC(C)(C)OC(=O)NC(Cc1ccccc1)OCc1ccccc1 (stereo not given)
EC50: > 200 µM
IC50: 45.7 µM

O=c1c2cc([N+](=O)[O-])ccc2n2n1CCCCC2
EC50: > 200 µM
IC50: > 200 µM

O=C(CCCN1CCC2(CC1)CC(=O)N(N1CCCCCC1)C2=O)c1ccccc1
EC50: > 200 µM
IC50: 182 µM

O=C(Cn1c(=O)ccn(C2OC(CO)C(O)C2F)c1=O)c1ccc(F)cc1 (stereo not given)
EC50: > 200 µM
IC50: > 200 µM

CN(C)C(c1ccccc1)C1COC2Cc3ccccc3C1O2 (stereo not given)
EC50: > 200 µM
IC50: > 200 µM and 151 µM

CCOP(=O)(OCC)/C(C#N)=C\c1ccc(OC(C)=O)cc1
EC50: > 562 µM
IC50: > 562 µM

CCOC(=O)Cc1csc2nc(-c3ccccc3)nn12
EC50: > 200 µM
IC50: 132 µM

CC(SC(=N)N)C(=N)N (stereo not given)
EC50: > 200 µM
IC50: > 200 µM

O=C(C(=O)C(=O)C(=O)C1C(=O)c2ccccc2C1=O)C(=O)C(=O)C1C(=O)c2ccccc2C1=O
outcome: inactive

Oc1ccccc1-c1n[nH]c(-c2ccccc2O)n1
EC50: > 200 µM
IC50: 1.38 µM

COC(C)(C)C1=CCC(C)CC1 (stereo not given)
EC50: > 100 µM
IC50: > 100 µM

COC(=O)C(C#N)=C1c2ccccc2Oc2ccccc21
EC50: > 129 µM
IC50: 66.1 µM

O=C1CC(c2c[nH]c3ccccc23)C(=O)N1 (stereo not given)
outcome: inactive

COC(=O)c1ncn(Cc2ccccc2)c1N
EC50: > 200 µM
IC50: > 100 µM

CC(C)CCC[C@@H](C)C1CCC2[C@@H]3CC=C4C[C@@H](OS(=O)(=O)O)CC[C@]4(C)C3CC[C@@]21C (stereo not given in full)
outcome: active

Cc1ccc(Nc2nc(=O)[nH]c(=O)[nH]2)cc1N
EC50: > 200 µM
IC50: > 200 µM

O=C(CNc1ccc([N+](=O)[O-])cc1)Nn1c(-c2ccccc2)nc2ccccc2c1=O
EC50: > 200 µM
IC50: 4.17 µM

N/C(=N\N=C\c1c[nH]c2cc(C(F)(F)F)ccc2c1=O)NO
EC50: > 200 µM
IC50: 89.1 µM

CC1CC(=O)Nc2ccccc2N1C(=O)CN1CCC(CCCCN(C)C)CC1 (stereo not given)
EC50: > 251 µM
IC50: > 251 µM

COc1cncn2nc(C)nc12
EC50: > 75.9 µM
IC50: > 75.9 µM

O=C(c1cccs1)N1CCCN(C(=O)c2cccs2)C1=S
EC50: > 200 µM
IC50: > 200 µM

CCC(=O)OC1CCC2C3CCC(=O)OC3C(C)(CCC(=O)O)CC12C (stereo not given)
EC50: > 200 µM
IC50: 1.91 µM

CCN(CC)c1c(N(CC)CC)c(=O)c1=O
EC50: > 200 µM
IC50: 6.03 µM

COC(=O)/C(=N\NC(=O)c1ccccc1O)C(C#N)c1ccc(Cl)cc1 (stereo not given)
EC50: > 479 µM
IC50: 0.912 µM

O=c1c2ccccc2nc(-c2ccccc2)n1-c1nccs1
EC50: > 200 µM
IC50: 22.4 µM

CCOC(=O)c1c(N)n(-c2ccccc2)c(=O)n(-c2ccccc2)c1=O
EC50: > 708 µM
IC50: 372 µM

COc1ccc(-c2c3c(n(C4OC(CO)C(O)C(O)C4O)c(=S)c2C#N)CC(C)(C)CC3=O)cc1 (stereo not given)
EC50: > 200 µM
IC50: 105 µM

O=C(O/N=C1/CCC/C1=C\c1ccccc1)c1ccc([N+](=O)[O-])cc1
outcome: inactive

O=C(c1ccc(Cl)cc1Cl)N(C(=O)N1CCCCC1)c1ccccc1
EC50: > 200 µM
IC50: > 200 µM

S=C1CCSc2c(ccc3ccccc23)N1
EC50: > 200 µM
IC50: 166 µM
